Test results as given in ChEMBL document CHEMBL1201862, “PubChem BioAssay data set” (2004).
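Protocol summary: plate cells (96-well), add compound at 5 concentrations, incubate 48 h, interpolate endpoints linearly. The concentration for 50% growth inhibition is given as GI50.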 The source made the active and inactive calls. No stated cut-off is given here; in the data, active = GI50 up to about 1.1 µM and inactive = higher.

What was measured:
Experiment in all cases: NCI anticancer screen, dose series, 48 h
KM12 = system: KM12
SK-MEL-28 = system: SK-MEL-28
SF-268 = system: SF-268
HCT-116 = system: HCT-116
EKVX = system: EKVX
K562 = system: K562
SF-295 = system: SF-295
RPMI-8226 = system: RPMI-8226
HCC 2998 = system: HCC 2998
SK-MEL-2 = system: SK-MEL-2
UO-31 = system: UO-31
LXFL 529 = system: LXFL 529
NCI-H460 = system: NCI-H460
COLO 205 = system: COLO 205
UACC-62 = system: UACC-62
Malme-3M = system: Malme-3M
MOLT-4 = system: MOLT-4

Row | SMILES | GI50 (KM12) | GI50 (SK-MEL-28) | GI50 (SF-268) | GI50 (HCT-116) | GI50 (EKVX) | GI50 (K562) | GI50 (SF-295) | GI50 (RPMI-8226) | GI50 (HCC 2998) | GI50 (SK-MEL-2) | GI50 (UO-31) | GI50 (LXFL 529) | GI50 (NCI-H460) | GI50 (COLO 205) | GI50 (UACC-62) | GI50 (Malme-3M) | GI50 (MOLT-4)
1 | CCCCCCCC[N+](C)(C)Cc1ccc(C[N+](C)(C)CCCCCCCC)cc1 | 11.7 µM (inactive) | > 100 µM (inactive) | > 100 µM (inactive) | > 100 µM (inactive) | > 100 µM (inactive) | 28.4 µM (inactive) | 63.4 µM (inactive) | 90.2 µM (inactive) | 31.5 µM (inactive) | 14.9 µM (inactive) | > 100 µM (inactive) | 14.6 µM (inactive) | 28.6 µM (inactive) | 1.76 µM (inactive) | 77.8 µM (inactive) | 95.3 µM (inactive) | 43.9 µM (inactive)
2 | CC(=O)OC1COC(Nc2ccc(C(C)=O)cc2)C(OC(C)=O)C1OC(C)=O (centres undefined) | > 100 µM (inactive) | > 100 µM (inactive) | > 100 µM (inactive) | – | > 100 µM (inactive) | > 100 µM (inactive) | > 100 µM (inactive) | > 100 µM (inactive) | > 100 µM (inactive) | > 100 µM (inactive) | > 100 µM (inactive) | > 100 µM (inactive) | > 100 µM (inactive) | > 100 µM (inactive) | > 100 µM (inactive) | > 100 µM (inactive) | > 100 µM (inactive)
3 | c1ccc(SC(CCCCOC2CCCCO2)Sc2ccccc2)cc1 (centres undefined) | > 100 µM (inactive) | 64.3 µM (inactive) | 44.5 µM (inactive) | 47.5 µM (inactive) | > 100 µM (inactive) | 52 µM (inactive) | > 100 µM (inactive) | 32.4 µM (inactive) | > 100 µM (inactive) | 22.6 µM (inactive) | 13.4 µM (inactive) | 41.1 µM (inactive) | 99.1 µM (inactive) | 94.6 µM (inactive) | > 100 µM (inactive) | > 100 µM (inactive) | 23.3 µM (inactive)
4 | Cc1ccccc1-c1cc(=O)c2cc(C)c(C)c(C(=O)O)c2o1 | > 100 µM (inactive) | > 100 µM (inactive) | – | > 100 µM (inactive) | > 100 µM (inactive) | > 100 µM (inactive) | > 100 µM (inactive) | > 100 µM (inactive) | > 100 µM (inactive) | > 100 µM (inactive) | > 100 µM (inactive) | > 100 µM (inactive) | > 100 µM (inactive) | > 100 µM (inactive) | > 100 µM (inactive) | > 100 µM (inactive) | > 100 µM (inactive)
5 | COc1cc(/C=C2\[C@H]3c4c(c(OC)c(C)c(OC)c4OC)CC(C(=O)N2Cc2ccccc2)N3C)c(OC)c(C)c1OC | 36 µM (inactive) | 25.4 µM (inactive) | 27.2 µM (inactive) | > 100 µM (inactive) | 26.1 µM (inactive) | 27.6 µM (inactive) | 19.8 µM (inactive) | 20.6 µM (inactive) | 21.7 µM (inactive) | > 10 µM (inactive) | 19.3 µM (inactive) | 19.4 µM (inactive) | 16.6 µM (inactive) | 17.3 µM (inactive) | 16.4 µM (inactive) | 21.9 µM (inactive) | 19.7 µM (inactive)
6 | CCOC(=O)CNC(=O)OCc1ccccc1 | > 100 µM (inactive) | > 100 µM (inactive) | > 100 µM (inactive) | > 100 µM (inactive) | – | > 100 µM (inactive) | > 100 µM (inactive) | – | > 100 µM (inactive) | > 100 µM (inactive) | > 100 µM (inactive) | > 100 µM (inactive) | > 100 µM (inactive) | > 100 µM (inactive) | > 100 µM (inactive) | > 100 µM (inactive) | > 100 µM (inactive)
7 | COC(=O)CC1NC(=O)C1C(C)(OC)OC (centres undefined) | – | > 100 µM (inactive) | > 100 µM (inactive) | > 100 µM (inactive) | > 100 µM (inactive) | > 100 µM (inactive) | > 100 µM (inactive) | > 100 µM (inactive) | > 100 µM (inactive) | > 100 µM (inactive) | > 100 µM (inactive) | > 100 µM (inactive) | > 100 µM (inactive) | > 100 µM (inactive) | > 100 µM (inactive) | > 100 µM (inactive) | > 100 µM (inactive)
8 | CC1=C(c2ccccc2)CON(c2ccccc2)C1 | 22.7 µM (inactive) | 31 µM (inactive) | 39.9 µM (inactive) | 24.7 µM (inactive) | 46.6 µM (inactive) | 30.1 µM (inactive) | 30.6 µM (inactive) | 28.4 µM (inactive) | 67.5 µM (inactive) | 26.6 µM (inactive) | 29.7 µM (inactive) | 29.1 µM (inactive) | 35 µM (inactive) | 33.1 µM (inactive) | 38.5 µM (inactive) | 56.4 µM (inactive) | 29.6 µM (inactive)
9 | CC(C)C(=S)N(C)O | 17.7 µM (inactive) | 37.6 µM (inactive) | 27.6 µM (inactive) | 2.29 µM (inactive) | 23.1 µM (inactive) | 0.42 µM (active) | 16.8 µM (inactive) | 0.518 µM (active) | 40.2 µM (inactive) | 24.5 µM (inactive) | 9.64 µM (inactive) | 2.39 µM (inactive) | 5.69 µM (inactive) | 0.35 µM (active) | 10.1 µM (inactive) | 53.7 µM (inactive) | 0.809 µM (active)
10 | O=C(O)CCCNS(=O)(=O)c1ccccc1 | > 100 µM (inactive) | > 100 µM (inactive) | > 100 µM (inactive) | – | > 100 µM (inactive) | > 100 µM (inactive) | > 100 µM (inactive) | > 100 µM (inactive) | > 100 µM (inactive) | > 100 µM (inactive) | > 100 µM (inactive) | > 100 µM (inactive) | > 100 µM (inactive) | > 100 µM (inactive) | > 100 µM (inactive) | > 100 µM (inactive) | > 100 µM (inactive)
11 | COC1CC2C3/C(=N/Nc4ccc([N+](=O)[O-])cc4[N+](=O)[O-])CCC2(C)C3C1 (centres undefined) | > 100 µM (inactive) | > 100 µM (inactive) | > 100 µM (inactive) | > 100 µM (inactive) | – | 75.5 µM (inactive) | > 10 µM (inactive) | 78 µM (inactive) | > 10 µM (inactive) | > 10 µM (inactive) | > 10 µM (inactive) | > 10 µM (inactive) | > 100 µM (inactive) | > 10 µM (inactive) | > 10 µM (inactive) | > 10 µM (inactive) | 42.3 µM (inactive)
12 | O=C1c2ccccc2C(=O)N1C/C=C/CO | > 100 µM (inactive) | > 100 µM (inactive) | > 100 µM (inactive) | > 100 µM (inactive) | – | > 100 µM (inactive) | – | > 100 µM (inactive) | > 100 µM (inactive) | > 100 µM (inactive) | > 100 µM (inactive) | > 100 µM (inactive) | > 100 µM (inactive) | > 100 µM (inactive) | > 100 µM (inactive) | > 100 µM (inactive) | > 100 µM (inactive)
13 | O=S(=O)(O)C(F)(F)C(F)(F)C(F)(F)C(F)(F)F | > 100 µM (inactive) | – | > 100 µM (inactive) | > 100 µM (inactive) | > 100 µM (inactive) | > 100 µM (inactive) | > 100 µM (inactive) | > 100 µM (inactive) | > 100 µM (inactive) | > 100 µM (inactive) | > 100 µM (inactive) | > 100 µM (inactive) | > 100 µM (inactive) | > 100 µM (inactive) | > 100 µM (inactive) | > 100 µM (inactive) | > 100 µM (inactive)
14 | C1=CC=C2NCCC/N=C3/C=CC=CC=C3NCCC/N=C\2C=C1 | > 100 µM (inactive) | > 100 µM (inactive) | > 100 µM (inactive) | > 100 µM (inactive) | > 100 µM (inactive) | > 100 µM (inactive) | > 100 µM (inactive) | > 100 µM (inactive) | > 100 µM (inactive) | > 100 µM (inactive) | > 100 µM (inactive) | > 100 µM (inactive) | > 100 µM (inactive) | > 100 µM (inactive) | > 100 µM (inactive) | – | > 100 µM (inactive)
15 | COC(=O)[C@@H]1C(=O)O[C@@H](c2ccc(OC)c(OC)c2OC)[C@@H]1C(=O)OC.COC(=O)[C@H]1C(=O)O[C@@H](c2ccc(OC)c(OC)c2OC)[C@@H]1C(=O)OC | > 100 µM (inactive) | > 100 µM (inactive) | > 100 µM (inactive) | > 100 µM (inactive) | > 100 µM (inactive) | > 100 µM (inactive) | > 100 µM (inactive) | > 100 µM (inactive) | > 100 µM (inactive) | – | > 100 µM (inactive) | > 100 µM (inactive) | > 100 µM (inactive) | > 100 µM (inactive) | > 100 µM (inactive) | > 100 µM (inactive) | > 100 µM (inactive)
16 | O=C1CC2Sc3ccccc3N=C2N1c1ccc(Cl)cc1Cl (centres undefined) | 49.8 µM (inactive) | 93.3 µM (inactive) | 40.9 µM (inactive) | 38.2 µM (inactive) | > 100 µM (inactive) | – | 79.8 µM (inactive) | 49.2 µM (inactive) | > 100 µM (inactive) | 46.6 µM (inactive) | 29.9 µM (inactive) | 84.9 µM (inactive) | > 100 µM (inactive) | > 100 µM (inactive) | 48.3 µM (inactive) | 64.7 µM (inactive) | 23.3 µM (inactive)
17 | COc1ccc2c3c([nH]c2c1[N+](=O)[O-])C(C)N(Cc1ccc([N+](=O)[O-])cc1)CC3 (centres undefined) | 14.2 µM (inactive) | 11.9 µM (inactive) | 2.48 µM (inactive) | – | 37.6 µM (inactive) | 3.22 µM (inactive) | 16.3 µM (inactive) | 4.12 µM (inactive) | 17.2 µM (inactive) | 14.5 µM (inactive) | 13.2 µM (inactive) | 5.7 µM (inactive) | 11.8 µM (inactive) | 14 µM (inactive) | 15.8 µM (inactive) | – | 2.99 µM (inactive)
